Measured values published in US20220023281A1, “HETEROCYCLIC SPIRO-COMPOUNDS AS AM2 RECEPTOR INHIBITORS” (THE UNIVERSITY OF SHEFFIELD, priority 2018, published 2022).

What follows are molecules tested against T1, AM2 receptor-expressing cells (1321N1 cells transfected with CALCRL+RAMP3) (Homo sapiens, UniProt O60896+Q16602) (assay: AM2 receptor inhibition, LANCE cAMP agonist-antagonist competition assay (AM2 D2 protocol)). Settings: inhibition of AM induced cAMP in 1321N1 cells expressing CALCRL+RAMP3; read-out: AM2 D2 protocol: pIC50 (converted).
T1 construct: host or cells: 1321N1 cells
Type: cell-based
Protocol: Compounds were assessed for their ability to inhibit ligand-induced elevations of cAMP, using the Perkin Elmer LANCE cAMP assay using commercially-available cells expressing a specific receptor of interest using the following general procedure:
Compounds were prepared in dimethyl sulfoxide (DMSO—99.9% pure) (Sigma Aldrich, Cat #: D4540) added to powder stocks to produce a 20 mM solution (100% DMSO) that was sonicated at 37° C. for 10 minutes to fully dissolve the compounds. The 20 mM stocks were diluted further in DMSO to produce a 2 mM solution that was sonicated at 37° C. for 10 minutes. 2 mM stocks were dissolved in assay/stimulation buffer to produce a 400 μM solution that was sonicated at 37° C. for 10 minutes for all cAMP assays. All stocks were stored at −20° C. Then serial dilution (Dilution factor: 10) was performed to achieve the desire experimental concentrations.
Competition assays were performed according to the manufactures instructions using LANCE® TR-FRET cAMP assay kit (Perkin Elmer, Cat #: AD0264). Serial dilutions (3 μl/well) of the molecules were plated in a 384-well OptiPlate (Perkin Elmer, Cat #: 6007299) in duplicates. Appropriate controls (100% stimulation: Forskolin and 0% stimulation: Vehicle control) (6 μl/well) were included in each plate for data normalization. Following the compound addition, 6 μl of G-protein coupled receptor overexpressing cells/Alexa Fluor antibody solution (1:100 dilution) was added in each well at a desired density of 2500 cells/well. The overexpressing cell lines were purchased from DiscoveRx, Birmingham, UK. After spinning the plate at 1000 rpm for 1 minute and vortexing briefly, the cells were pre-incubated with the compounds for 30 minutes at room temperature (covered). Then 3 μl of the equivalent peptide ligand (EC50 dose) was added to all the wells except vehicle and forskolin controls. The plate were then spun down at 1000 rpm for 1 minute and once finished they were vortexed briefly and covered. Cells were stimulated in the presence of the ligands for 15 minutes at room temperature. After stimulation 12 μl of detection mix (Europium-Chelate streptavidin/biotinylated cAMP tracer solution) was added to all wells and incubated for 60 minutes at room temperature. The plate was then read on the Enspire multimode Plate reader (Perkin Elmer), at; 320/340 nm excitation and 615/665 nm emission was recorded.
Assay/Stimulation Buffer (30 mL)—pH 7.4 • 28 mL Hank's Balanced salt solution (+MgCl2, +CaCl2))—(Thermo Fisher Cat #:14170112) • 150 μl HEPES (1M)—(Thermo Fisher Cat #:15630080) • 400 μl Stabilizer (DTPA) Purified BSA (7.5%)—(Perkin Elmer, Cat #: CR84-100) • 60 μl IBMX (250 mM)—(Sigma Aldrich, Cat #: 15879)
The ability of a compound to inhibit the AM induced cAMP activation in AM2 receptor-expressing cells (1321N1 cells transfected with CALCRL+RAMP3, sourced from DiscoverX catalogue number 95-0169C6) was assessed using the protocol above.

T1 sequence (Q16602 23-461): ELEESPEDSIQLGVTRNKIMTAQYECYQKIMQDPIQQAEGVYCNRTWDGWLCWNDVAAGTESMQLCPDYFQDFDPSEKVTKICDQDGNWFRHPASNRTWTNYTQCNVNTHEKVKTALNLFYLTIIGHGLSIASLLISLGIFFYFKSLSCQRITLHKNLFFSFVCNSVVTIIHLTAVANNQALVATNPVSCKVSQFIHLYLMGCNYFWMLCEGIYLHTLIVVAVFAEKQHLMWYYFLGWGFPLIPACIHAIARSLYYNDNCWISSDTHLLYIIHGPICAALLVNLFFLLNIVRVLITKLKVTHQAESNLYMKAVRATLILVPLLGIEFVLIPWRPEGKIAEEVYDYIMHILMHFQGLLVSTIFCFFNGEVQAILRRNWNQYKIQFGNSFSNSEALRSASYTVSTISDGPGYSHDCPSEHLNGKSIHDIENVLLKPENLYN
T1 sequence (O60896 24-148): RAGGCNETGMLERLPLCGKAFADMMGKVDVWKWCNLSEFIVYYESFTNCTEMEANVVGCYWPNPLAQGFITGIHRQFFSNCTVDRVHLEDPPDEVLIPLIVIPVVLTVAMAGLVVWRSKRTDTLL

| IC50 | SMILES |
| --- | --- |
| 0.0513 µM | C[C@@H]1CNC[C@@H](N(CC(=O)Nc2ccc3c(c2)C[C@@]2(C3)C(=O)Nc3ncccc32)C(=O)C(C)(C)C)C1 (relative stereo) [Example 27, N-((3S*,5S*)-5-Methylpiperidin-3-yl)-N-(2-oxo-2-(((R)-2′-oxo-1,1′,2′,3-tetrahydrospiro[indene-2,3′-pyrrolo[2,3-b]pyridin]-5-yl)amino)ethyl)pivalamide] |
| 0.186 µM | C[C@H]1CC[C@H](N(CC(=O)Nc2ccc3c(c2)C[C@@]2(C3)C(=O)Nc3ncccc32)C(=O)C(C)(C)C)CN1 (relative stereo) [Example 28, N-((3S*,6S*)-6-Methylpiperidin-3-yl)-N-(2-oxo-2-(((R)-2′-oxo-1,1′,2′,3-tetrahydrospiro[indene-3′-pyrrolo[2,3-b]pyridin]-5-yl)amino)ethyl)pivalamide] |
| 0.178 µM | C[C@@H]1CC[C@H](N(CC(=O)Nc2ccc3c(c2)C[C@@]2(C3)C(=O)Nc3ncccc32)C(=O)C(C)(C)C)CN1 (relative stereo) [Example 29, N-((3S*,6R*)-6-Methylpiperidin-3-yl)-N-(2-oxo-2-(((R)-2′-oxo-1,1′,2′,3-tetrahydrospiro[indene-2,3′-pyrrolo[2,3-b]pyridin]-5-yl)amino)ethyl)pivalamide] |
| 0.316 µM | CC(C)(C)C(=O)N(CC(=O)Nc1ccc2c(c1)C[C@@]1(C2)C(=O)Nc2ncccc21)C1CCC2CCC1N2 (single isomer, unassigned) [Example 31A] |
| 0.2 µM | CC(C)(C)C(=O)N(CC(=O)Nc1ccc2c(c1)C[C@@]1(C2)C(=O)Nc2ncccc21)C1CCC2CCC1N2 (single isomer, unassigned) [Example 31B] |
| 0.0145 µM | CC(C)(C)C(=O)N(CC(=O)Nc1ccc2c(c1)CC1(C2)C(=O)Nc2ncccc21)C1CCCNC1 (stereo not drawn) [Example 1, N-(2-Oxo-2-((2′-oxo-1,1′,2′,3-tetrahydrospiro[indene-2,3′-pyrrolo[2,3-b]pyridin]-5-yl)amino)ethyl)-N-(piperidin-3-yl)pivalamide] |
| 0.00302 µM | CC(C)(C)C(=O)N(CC(=O)Nc1ccc2c(c1)C[C@@]1(C2)C(=O)Nc2ncccc21)[C@H]1CCCNC1 [Example 2, N-(2-Oxo-2-(((R)-2′-oxo-1,1′,2′,3-tetrahydrospiro[indene-2,3′-pyrrolo[2,3-b]pyridin]-5-yl)amino)ethyl)-N—((S)-piperidin-3-yl)pivalamide] |
| 0.741 µM | CC(C)(C)C(=O)N(CC(=O)Nc1ccc2c(c1)C[C@@]1(C2)C(=O)Nc2ncccc21)[C@@H]1CCCNC1 [Example 3, N-(2-Oxo-2-(((R)-2′-oxo-1,1′,2′,3-tetrahydrospiro[indene-2,3′-pyrrolo[2,3-b]pyridin]-5-yl)amino)ethyl)-N—((R)-piperidin-3-yl)pivalamide] |
| 0.251 µM | O=C(CN(C(=O)C12CC(C1)C2)[C@H]1CCCNC1)Nc1ccc2c(c1)C[C@@]1(C2)C(=O)Nc2ncccc21 [Example 4, N-(2-Oxo-2-(((R)-2′-oxo-1,1′,2′,3-tetrahydrospiro[indene-2,3′-pyrrolo [2,3-b]pyridin]-5-yl)amino)ethyl)-N—((S)-piperidin-3-yl)bicyclo[1.1.1]pentane-1-carboxamide] |
| 0.17 µM | O=C(CN(C(=O)C1CCCC1)[C@H]1CCCNC1)Nc1ccc2c(c1)C[C@@]1(C2)C(=O)Nc2ncccc21 [Example 5, N-(2-Oxo-2-(((R)-2′-oxo-1,1′,2′,3-tetrahydrospiro[indene-2,3′-pyrrolo[2,3-b]pyridin]-5-yl)amino)ethyl)-N—((S)-piperidin-3-yl)cyclopentanecarboxamide] |
| 8.32 µM | CC(C)(F)C(=O)N(CC(=O)Nc1ccc2c(c1)C[C@@]1(C2)C(=O)Nc2ncccc21)[C@H]1CCCNC1 [Example 6, 2-Fluoro-2-methyl-N-[2-oxo-2-[[(3R)-2-oxospiro[1H-pyrrolo[2,3-b]pyridine-3,2′-indane]-5′-yl]amino]ethyl]-N-[(3S)-3-piperidyl]propanamide] |
| 0.955 µM | O=C(CN(C(=O)C1(C(F)(F)F)CC1)[C@H]1CCCNC1)Nc1ccc2c(c1)C[C@@]1(C2)C(=O)Nc2ncccc21 [Example 7, N-(2-Oxo-2-(((R)-2′-oxo-1,1′,2′,3-tetrahydrospiro[indene-2,3′-pyrrolo[2,3-b]pyridin]-5-yl)amino)ethyl)-N—((S)-piperidin-3-yl)-1-(trifluoromethyl)cyclopropanecarboxamide] |
| 0.145 µM | CC1(C(=O)N(CC(=O)Nc2ccc3c(c2)C[C@@]2(C3)C(=O)Nc3ncccc32)[C@H]2CCCNC2)CCC1 [Example 8, 1-Methyl-N-(2-oxo-2-(((R)-2′-oxo-1,1′,2′,3-tetrahydrospiro[indene-2,3′-pyrrolo[2,3-b]pyridin]-5-yl)amino)ethyl)-N—((S)-piperidin-3-yl)cyclobutanecarboxamide] |
| 0.0437 µM | CC(C)(C(=O)N(CC(=O)Nc1ccc2c(c1)C[C@@]1(C2)C(=O)Nc2ncccc21)[C@H]1CCCNC1)C(F)(F)F [Example 9, 3,3,3-Trifluoro-2,2-dimethyl-N-(2-oxo-2-(((R)-2′-oxo-1,1′,2′,3-tetrahydrospiro[indene-2,3′-pyrrolo[2,3-b]pyridin]-5-yl)amino)ethyl)-N—((S)-piperidin-3-yl)propanamide] |
| 0.0501 µM | CC(C)(C#N)C(=O)N(CC(=O)Nc1ccc2c(c1)C[C@@]1(C2)C(=O)Nc2ncccc21)[C@H]1CCCNC1 [Example 10, 2-Cyano-2-methyl-N-(2-oxo-2-(((R)-2′-oxo-1,1′,2′,3-tetrahydrospiro[indene-2,3′-pyrrolo[2,3-b]pyridin]-5-yl)amino)ethyl)-N—((S)-piperidin-3-yl)propenamide] |
| 0.0851 µM | COC(C)(C)C(=O)N(CC(=O)Nc1ccc2c(c1)C[C@@]1(C2)C(=O)Nc2ncccc21)[C@H]1CCCNC1 [Example 11, 2-Methoxy-2-methyl-N-(2-oxo-2-(((R)-2′-oxo-1,1′,2′,3-tetrahydrospiro[indene-2,3′-pyrrolo[2,3-b]pyridin]-5-yl)amino)ethyl)-N—((S)-piperidin-3-yl)propenamide] |
| 0.263 µM | O=C(CN(C(=O)C1(C(F)(F)F)CCC1)[C@H]1CCCNC1)Nc1ccc2c(c1)C[C@@]1(C2)C(=O)Nc2ncccc21 [Example 12, N-(2-Oxo-2-(((R)-2′-oxo-1,1′,2′,3-tetrahydrospiro[indene-2,3′-pyrrolo[2,3-b]pyridin]-5-yl)amino)ethyl)-N—((S)-piperidin-3-yl)-1-(trifluoromethyl)cyclobutanecarboxamide] |
| 0.0631 µM | CC(C)(CC(F)(F)F)C(=O)N(CC(=O)Nc1ccc2c(c1)C[C@@]1(C2)C(=O)Nc2ncccc21)[C@H]1CCCNC1 [Example 13, 4,4,4-Trifluoro-2,2-dimethyl-N-(2-oxo-2-(((R)-2′-oxo-1,1′,2′,3-tetrahydrospiro[indene-2,3′-pyrrolo[2,3-b]pyridin]-5-yl)amino)ethyl)-N—((S)-piperidin-3-yl)butanamide] |
| 0.288 µM | CCC1(C(=O)N(CC(=O)Nc2ccc3c(c2)C[C@@]2(C3)C(=O)Nc3ncccc32)[C@H]2CCCNC2)CCOCC1 [Example 14, 4-Ethyl-N-(2-oxo-2-(((R)-2′-oxo-1,1′,2′,3-tetrahydrospiro[indene-2,3′-pyrrolo[2,3-b]pyridin]-5-yl)amino)ethyl)-N—((S)-piperidin-3-yl)tetrahydro-2H-pyran-4-carboxamide] |
| 0.0501 µM | CC1(C(=O)N(CC(=O)Nc2ccc3c(c2)C[C@@]2(C3)C(=O)Nc3ncccc32)[C@H]2CCCNC2)CCNCC1 [Example 15, 4-Methyl-N-(2-oxo-2-(((R)-2′-oxo-1,1′,2′,3-tetrahydrospiro[indene-2,3′-pyrrolo[2,3-b]pyridin]-5-yl)amino)ethyl)-N—((S)-piperidin-3-yl)piperidine-4-carboxamide] |
| 0.112 µM | CC(=O)N1CCC(C)(C(=O)N(CC(=O)Nc2ccc3c(c2)C[C@@]2(C3)C(=O)Nc3ncccc32)[C@H]2CCCNC2)CC1 [Example 16, 1-Acetyl-4-methyl-N-(2-oxo-2-(((R)-2′-oxo-1,1′,2′,3-tetrahydrospiro[indene-2,3′-pyrrolo[2,3-b]pyridin]-5-yl)amino)ethyl)-N—((S)-piperidin-3-yl)piperidine-4-carboxamide] |
